In patent US20050090524A1, “Novel adamantane derivatives” (priority 2002, published 2005):
Counter-ions that a name gives are not always drawn.

System: not given
Assay: not given
Settings: not given

Row | SMILES | melting point
1 | Cc1ccc2nc(N3CCC(NCCO)CC3)ccc2c1NC(=O)CC12CC3CC(CC(C3)C1)C2 (as salt: hydrochloride) [Example 181, 2-(1-Adamantyl)-N-(2-{4-[(2-hydroxyethyl)amino]piperidin-1-yl}-6-methylquinolin-5-yl)acetamide Dihydrochloride] | 306 °C
2 | O=C(CC12CC3CC(CC(C3)C1)C2)Nc1c(Cl)ccc2nc(NCCCNCCO)ccc12 (as salt: hydrochloride) | 264 to 266 °C
3 | Cc1ccc2nc(NCCCO)ccc2c1NC(=O)CC12CC3CC(CC(C3)C1)C2 [Example 12, 2(1-Adamantyl)-N-{2-[(3-hydroxypropyl)amino]-6-methylquinolin-5-yl}acetamide] | 168 to 174 °C
4 | O=C(NCC12CC3CC(CC(C3)C1)C2)c1c(Cl)ccc2nc(CN3CCNCC3)ccc12 (as salt: hydrochloride) [Example 170, N-(1-Adamantylmethyl)-6-chloro-2-(piperazin-1-ylmethyl)quinoline-5-carboxamide Hydrochloride] | 208 °C (dec.)
5 | O=C(CC12CC3CC(CC(C3)C1)C2)Nc1c(Cl)ccc2nc(CN3CCNCC3)ccc12 (as salt: trifluoroacetate) | 132 to 136 °C
6 | O=C(NCC12CC3CC(CC(C3)C1)C2)c1cccc2nc(CCCNCCCO)ccc12 (as salt: hydrochloride) | 150 to 152 °C
7 | Cc1ccc2nc(N3CCC(N)CC3)ccc2c1NC(=O)CC12CC3CC(CC(C3)C1)C2 (as salt: hydrochloride) | 295 °C
8 | O=C(NCC12CC3CC(CC(C3)C1)C2)c1cccc2ncccc12 (as salt: trifluoroacetate) | 125 to 127 °C (dec.)
9 | CNCCCc1ccc2c(C(=O)NCC34CC5CC(CC(C5)C3)C4)c(Cl)ccc2n1 (as salt: hydrochloride) [Example 167, N-(1-Adamantylmethyl)-6-chloro-2-[3-(methylamino)propyl]quinoline-5-carboxamide Sesquihydrochloride] | 184 to 185 °C
10 | O=C(CC12CC3CC(CC(C3)C1)C2)Nc1cccc2nc(CCCNCCCO)ccc12 (as salt: hydrochloride) [Example 177, 2-(1-Adamantyl)-N-(2-{3-[(3-hydroxypropyl)amino]propyl}quinolin-5-yl)acetamide Dihydrochloride] | 130 to 135 °C
11 | O=C(CC12CC3CC(CC(C3)C1)C2)Nc1c(Cl)ccc2ncccc12 [Example 5, 2-(1-Adamantyl)-N-(6-chloroquinolin-5-yl)acetamide] | 219 to 220 °C

Target: T1, P2X7 receptor (Homo sapiens, UniProt Q99572)
T1 construct: 200 μl of a suspension of THP-1 cells; endogenous in cells; host or cells: THP-1 cells
T1 sequence (Q99572 1-595): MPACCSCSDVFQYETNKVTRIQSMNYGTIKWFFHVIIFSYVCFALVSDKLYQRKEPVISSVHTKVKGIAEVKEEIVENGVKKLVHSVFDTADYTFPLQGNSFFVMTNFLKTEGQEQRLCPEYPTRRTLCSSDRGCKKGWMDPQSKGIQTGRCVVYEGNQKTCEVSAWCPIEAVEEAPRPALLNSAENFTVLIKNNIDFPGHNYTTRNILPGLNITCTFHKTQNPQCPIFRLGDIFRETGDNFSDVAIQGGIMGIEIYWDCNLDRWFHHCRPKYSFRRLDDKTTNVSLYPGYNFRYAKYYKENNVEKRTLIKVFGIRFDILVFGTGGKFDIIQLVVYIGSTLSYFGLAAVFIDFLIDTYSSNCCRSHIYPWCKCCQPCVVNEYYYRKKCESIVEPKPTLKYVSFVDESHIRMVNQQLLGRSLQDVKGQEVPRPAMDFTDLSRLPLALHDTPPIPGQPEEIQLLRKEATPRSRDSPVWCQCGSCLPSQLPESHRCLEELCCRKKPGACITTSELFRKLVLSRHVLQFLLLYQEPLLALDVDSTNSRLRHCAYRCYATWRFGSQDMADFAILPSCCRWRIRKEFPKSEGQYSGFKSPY
Assay: P2X7 receptor antagonist test: bbATP-induced ethidium bromide fluorescence in THP-1 cells
Format: cell-based
Settings: bbATP agonist, 37° C. for one hour, negative logarithm of concentration reducing bbATP agonist activity by 50%
Excerpt: Certain compounds such as benzoylbenzoyl adenosine triphosphate (bbATP) are known to be agonists of the P2X7 receptor, effecting the formation of pores in the plasma membrane (Drug Development Research (1996), 37(3), p.126). Consequently, when the receptor is activated using bbATP in the presence of ethidium bromide (a fluorescent DNA probe), an increase in the fluorescence of intracellular DNA-bound ethidium bromide is observed. The increase in fluorescence can be used as a measure of P2X7 receptor activation and therefore to quantify the effect of a compound on the P2X7 receptor.
In this manner, each of the title compounds of the Examples was tested for antagonist activity at the P2X7 receptor. Thus, the test was performed in 96-well flat bottomed microtitre plates, the wells being filled with 250 μl of test solution comprising 200 μl of a suspension of THP-1 cells (2.5×10^6 cells/ml) containing 10^−4M ethidium bromide, 25 μl of a high potassium buffer solution containing 10^−5M bbATP, and 25 μl of the high potassium buffer solution containing 3×10^−5M test compound. The plate was covered with aplastics sheet and incubated at 37° C. for one hour. The plate was then read in a Perkin-Elmer fluorescent plate reader, excitation 520 nm, emission 595 nm, slit widths: Ex 15 nm, Em 20 nm. For the purposes of comparison, bbATP (a P2X7 receptor agonist) and pyridoxal 5-phosphate (a P2X7 receptor antagonist) were used separately in the test as controls. From the readings obtained, a pIC50 figure was calculated for each test compound, this figure being the negative logarithm of the concentration of test compound necessary to reduce the bbATP agonist activity by 50%.

Row | SMILES | IC50 [nM]
12 | Cc1ccc2nc(CCNCCCO)ccc2c1NC(=O)CC12CC3CC(CC(C3)C1)C2 [Example 205, 2-(1-Adamantyl)-N-(2-{2-[(3-hydroxypropyl)amino]ethyl}-6-methylquinolin-5-yl)acetamide Dihydrochloride] | 17.8
13 | O=C(CC12CC3CC(CC(C3)C1)C2)Nc1c(Cl)ccc2nc(CN3CCN(CCO)CC3)ccc12 [Example 196, 2-(1-Adamantyl)-N-(6chloro-2-{[4-(2-hydroxyethyl)piperazin-1-yl]methyl}quinlolin-5-yl)acetamide] | 18.6
14 | CNCCCc1ccc2c(C(=O)NCC34CC5CC(CC(C5)C3)C4)c(Cl)ccc2n1 [Example 167, N-(1-Adamantylmethyl)-6-chloro-2-[3-(methylamino)propyl]quinoline-5-carboxamide Sesquihydrochloride] | 5.01
15 | O=C(CC12CC3CC(CC(C3)C1)C2)Nc1cccc2cnccc12 [Example 160, 2-(1-Adamantyl)-N-isoquinolin-5-ylacetamide] | 79.4
16 | O=C(CC12CC3CC(CC(C3)C1)C2)Nc1cccc2nc(NCCCO)ccc12 [Example 6, 2-(1-Adamantyl)-N-{2-[(3-hydroxypropyl)amino]quinolin-5-yl}acetamide] | 8.91
17 | O=C(NCC12CC3CC(CC(C3)C1)C2)c1cc(CCCNCCCO)nc2ccccc12 [Example 168, N-(1-Adamantylmethyl)-2-{3-[(3-hydroxypropyl)amino]propyl}quinoline-4-carboxamide Benzoic Acid Salt] | 25.1
18 | O=C(NCC12CC3CC(CC(C3)C1)C2)c1c(Cl)ccc2nc(CN3CCNCC3)ccc12 [Example 170, N-(1-Adamantylmethyl)-6-chloro-2-(piperazin-1-ylmethyl)quinoline-5-carboxamide Hydrochloride] | 26.3
19 | CNCCCN(C)c1ccc2c(C(=O)NCC34CC5CC(CC(C5)C3)C4)c(Cl)ccc2n1 [Example 208, N-(1-Adamantylmethyl)-6-chloro-2-{methyl[3-(methylamino)propyl]amino}quinoline-5-carboxamide] | 35.5
